According to patent US4680382A, “Analogues of actinomycin D” (priority 1986, dated 1987):
*1 amine or outer side, *2 acyl side, *3 side chain or, on linkers, in order; H or OH if unused. Where a SMILES comes first, the peptide text is derived from it. Bridges are numbered along the chain shown (N, C = ends). Roman numbers before positions name the chains, in order. [ ]: non-standard residue; d: D form. Actinocin(9to1) = Cc1c2oc3c(C)ccc(C(=O)[*:1])c3nc-2c(C(=O)[*:2])c(N)c1=O; NMeV = CN[C@H](C(=O)O)C(C)C; Sar = CNCC(=O)O

Legend:
calf-thymus DNA = assay: Equilibrium binding to calf-thymus DNA, Scatchard plots of binding isotherms (spectrophotometric); conditions: Scatchard plot
Experimental: The "reverse" analogues bind to calf-thymus DNA, but the spectrophotometrically determined binding (Kapp and Bapp, equilibrium binding values) constants are found to be lower than those of AMD. The binding is also measured by thermal denaturation of DNA.
The equilibrium binding constants (Kapp and Bapp) of the "reverse" methyl 7a and the "reverse" phenyl 8a were determined from the Scatchard plots of binding isotherms; the Scatchard plots are produced according to the previously described methods using calf-thymus DNA [Sengupta et al, Biochem. Biophys. Acta 521, 89 (1978)]. The Kapp values are 2.5×10^6 and 2.3×10^6 M^-1, respectively; corresponding Bapp values are 0.038 and 0.036. […] But, these "reverse" analogues associate with DNA less strongly; their frequency of binding is also lower compared to that of AMD. However, the "reverse" analogues fail to cause any measurable change in the ratio of the intrinsic viscosity (γ) of DNA with the increasing ratios of [ligand]/DNA base pair (r), even when low molecular weight DNAs (0.5×10^5 to 1.0×10^5) were employed.

P388 cells = assay: Inhibition of DNA synthesis (methyl-[3H]thymidine incorporation) in P388 cells; assay type: cell-based, murine; conditions: 50% reduction in 1 hr of methyl-[3H]thymidine incorporation, read-out: IC50 DNA synth
Experimental: Experiments for inhibition of nucleic acid synthesis in tumor cells in vitro were carried out with P388 tumor cells, details of which were reported by Sengupta et al, J. Med. Chem., 18, 1175 (1975). […] AMD-OZLs inhibit either process with equal activity and with the potency of its metabolite 7-hydroxy-AMD.
^c IC50 (DNA) = concentration of inhibitor in μM required to
cause 50% reduction (in 1 hr) in methyl[^3 H]thymidine incorporation
into acid precipitable material with use of P388 cells.

[1] = molecular target: T1, NADPH cytochrome P-450 reductase (rat liver microsomes) (Rattus norvegicus, UniProt P00388); assay: Stimulation of NADPH oxidation in rat hepatic microsomal incubations; conditions: for NADPH oxid: 340 nm, 37° C., phenobarbital induced microsomes, mean ± standard error of triplicate, basal 9.11 ± 0.30; for percentage stimulation of NADPH oxidation over basal rate: (drug-stimulated rate - basal rate)/basal rate × 100
T1 sequence (P00388 1-678): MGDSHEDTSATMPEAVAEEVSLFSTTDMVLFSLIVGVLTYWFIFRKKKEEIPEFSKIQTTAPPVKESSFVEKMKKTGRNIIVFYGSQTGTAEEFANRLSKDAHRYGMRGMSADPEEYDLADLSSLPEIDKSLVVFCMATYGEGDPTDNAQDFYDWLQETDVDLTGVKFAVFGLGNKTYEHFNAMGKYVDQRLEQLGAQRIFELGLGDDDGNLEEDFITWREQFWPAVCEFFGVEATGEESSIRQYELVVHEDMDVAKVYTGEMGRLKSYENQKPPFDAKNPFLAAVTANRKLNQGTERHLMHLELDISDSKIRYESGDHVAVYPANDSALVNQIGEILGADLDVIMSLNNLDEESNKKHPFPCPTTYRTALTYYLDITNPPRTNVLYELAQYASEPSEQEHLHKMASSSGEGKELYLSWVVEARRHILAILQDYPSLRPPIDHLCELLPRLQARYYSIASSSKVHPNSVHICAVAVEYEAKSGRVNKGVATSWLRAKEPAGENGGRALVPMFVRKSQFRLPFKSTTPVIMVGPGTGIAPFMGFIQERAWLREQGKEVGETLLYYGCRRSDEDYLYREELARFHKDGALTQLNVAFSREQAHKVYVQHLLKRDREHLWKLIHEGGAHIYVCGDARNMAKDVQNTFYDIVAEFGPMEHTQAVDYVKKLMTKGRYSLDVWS

[2] = Metabolism of tritiated drugs by rat liver microsomes with NADPH-generating system; assay type: in vitro ADME; conditions: for Percent isolated: unconverted: 37° C.
Experimental: A method of using tumor cell sonicates was developed to study the metabolism of the analogues of AMD. By use of sonicated cells, the dilution effects that would occur if flasks of cultured cells were used are avoided. Although the cells are disrupted by this method, their enzyme systems appear to remain active. Large numbers of tumor cells (P388 murine leukemia) were sonicated in Earle's balanced salt solution (EBSS) and were incubated with tritiated AMD and its analogues 7a and 9a (Table II) for 16 hr. In another experiment, the analogues were treated with rat hepatic microsomes at 37° C. for 6 hr in the presence of a NADPH-generating system. The metabolic products were isolated and identified with the following results (Table II). […] In the microsomes, the major metabolites were in unconjugated forms; in the tumor cell homogenates, the major identified metabolites were glucuronide and sulfate conjugated forms. It should be pointed out that in these metabolic experiments, the identification of these glucuronide and/or sulfate conjugates was made only on the basis of the disappearance of the peaks from the HPLC chromatograms upon treatment with deconjugating enzymes glucarase.
The incubation mixture consisted of 500 μg of microsomal protein 1.6 mM NADP^+, 16 mM glucose 6-phosphate, 10.1 U of glucose-6-phosphate dehydrogenase, 12 mM MgCl2, 10 mM sodium phosphate-potassium phosphate (pH 7.4) and 0.4-0.8 mM of tritiated drugs (including AMD) in a final volume of 5.0 mL. The mixtures were incubated at 37° C. for 6 hr, after which the reaction was stopped by chilling at 0° C. The chilled mixtures were filtered by centrifugation in tubes containing centriflow membrane cones (Amicon, 1053, molecular weight cut-off 25000). The filtrates were adjusted to pH 5.0 before extraction with water-saturated ethyl acetate (step A).
Equal aliquots of the aqueous layer (step A) were treated either with equal volumes of glucarase (5 mg/mL) in 0.05M acetate buffer, pH 5.0, overnight at 37° C. under nitrogen in a shaking water bath or with buffer alone (step B). The aqueous fractions from step B were mixed with an extract of the Amicon cone-retained material. The metabolites at each step were separated by HPLC (Table II). For extraction of the high molecular weight protein conjugates and other tissue-associated materials, the cones were soaked in 0.1N NaOH solution overnight at 0° C. and were processed as in the preceding section before gel filtration. A Sephacryl S-200 superfine column, 1.0× 60 cm, was made in 6M guanidine hydrochloride, pH 5.0, and the lyophilized material in minimum water, pH 7.0, was added to the top of the column and eluted overnight with 6M guanidine hydrochloride, pH 5.0, at a flow rate of 2 cm/hr. A 2% solution of blue dextran 2000 (100 μL, Pharmacia) was added to the column for calibration. Fractions were collected, and the distribution of the material in the fractions was determined by liquid scintillation counting. […] For assay of metabolites, a Varian Moden 5020 gradient liquid chromatograph equipped with a CD-111L chromatography data system was used.

| SMILES | Bapp (equilibrium binding value) (calf-thymus DNA) | Kapp (equilibrium binding constant) (calf-thymus DNA) | IC50 (P388 cells) | NADPH oxid [1] | percentage stimulation of NADPH oxidation over basal rate [1] | Percent isolated: "tissue" bound ([2]; rat liver microsomes (M), 6 hr) | Percent isolated: protein conjugates ([2]; rat liver microsomes (M), 6 hr) | Percent isolated: unidentified metabolite ([2]; rat liver microsomes (M), 6 hr) | Percent metabolite isolated: 4a glucuronide and/or sulfate ([2]; rat liver microsomes (M), 6 hr) | Percent metabolite isolated: "symmetrical" AMD (4a) ([2]; rat liver microsomes (M), 6 hr) | Percent isolated: unconverted ([2]; rat liver microsomes (M), 6 hr) | Percent metabolite isolated: 2a glucuronide and/or sulfate ([2]; rat liver microsomes (M), 6 hr) | Percent metabolite isolated: 7-hydroxy-AMD (2a) ([2]; rat liver microsomes (M), 6 hr) | formation of metabolite or conjugate ([2]; tumor cell homogenate and rat liver microsomes) |
| --- | --- | --- | --- | --- | --- | --- | --- | --- | --- | --- | --- | --- | --- | --- |
| Cc1c2oc3c(C)c(O)c(N)c(C(=O)NC4C(=O)NC(C(C)C)C(=O)N5CCCC5C(=O)N(C)CC(=O)N(C)C(C(C)C)C(=O)OC4C)c3nc-2c(C(=O)NC2C(=O)NC(C(C)C)C(=O)N3CCCC3C(=O)N(C)CC(=O)N(C)C(C(C)C)C(=O)OC2C)c(N)c1=O (stereo not shown) [4a, 7-Hydroxy-8-amino-actinomycin D] | 1.3 | 6.3e+07 M⁻¹ | 1110 nM | 64.3 ± 2.11 nmol min^-1 (mg of protein)^-1 | 606% | – | – | – | – | – | – | – | – | – |
| Cc1nc2c(C(=O)NC3C(=O)NC(C(C)C)C(=O)N4CCCC4C(=O)N(C)CC(=O)N(C)C(C(C)C)C(=O)OC3C)c3nc4c(C(=O)NC5C(=O)NC(C(C)C)C(=O)N6CCCC6C(=O)N(C)CC(=O)N(C)C(C(C)C)C(=O)OC5C)c(N)c(=O)c(C)c-4oc3c(C)c2o1 [7a, 7-Amino-2,9,11-trimethyl-8H-8-oxooxazolo [4,5-b]phenoxazine 4,6-bis[carbonyl-L-threonyl-D-valyl-L-prolylsarcosyl-L-N-methylvaline-(threonine hydroxyl)] lactone] | 0.038 | 2.5e+06 M⁻¹ | 1010 nM | 21.3 ± 1.93 nmol min^-1 (mg of protein)^-1 | 134% | 3.7% | 3.5% | 8.5% | nil | 62.5% | 21% | – | – | – |
| Cc1nc2c(C(=O)NC3C(=O)NC(C(C)C)C(=O)N4CCCC4C(=O)N(C)CC(=O)N(C)C(C(C)C)C(=O)OC3C)c3nc4c(C(=O)NC5C(=O)NC(C(C)C)C(=O)N6CCCC6C(=O)N(C)CC(=O)N(C)C(C(C)C)C(=O)OC5C)cc(=O)c(C)c-4oc3c(C)c2o1 (stereo not shown) [9a] | – | – | – | 19.1 ± 1.70 nmol min^-1 (mg of protein)^-1 | 110% | 5.5% | 9.5% | 6% | – | – | 38.5% | nil | 40.5% | – |
| Cc1c2oc3c(C)ccc(C(=O)N[C@@H]4C(=O)N[C@H](C(C)C)C(=O)N5CCC[C@H]5C(=O)N(C)CC(=O)N(C)[C@@H](C(C)C)C(=O)O[C@@H]4C)c3nc-2c(C(=O)N[C@@H]2C(=O)N[C@H](C(C)C)C(=O)N3CCC[C@H]3C(=O)N(C)CC(=O)N(C)[C@@H](C(C)C)C(=O)O[C@@H]2C)c(N)c1=O [AMD, Actinomycin D] (I: T[dV]P[Sar][NMeV] / II: T[dV]P[Sar][NMeV]; ester I:1-I:C, II:1-II:C; linker I:N-II:N via Actinocin(9to1)) | 0.108 | 2.3e+07 M⁻¹ | 1120 nM | 10.01 ± 0.90 nmol min^-1 (mg of protein)^-1 | 9.9% | – | – | – | – | – | 100% | – | – | did not form any detectable metabolite or conjugate |
